Patent US6979685B1, “Cycloalkyl amine compounds and uses thereof” (Cardiome Pharma Corp., priority 1999, dated 2005)

Tests used:
[1] = system: cardiac arrhythmias in conscious rats subjected to coronary artery occlusion; experiment: Antiarrhythmic efficacy: arrhythmias induced by coronary artery occlusion in conscious rats; type: in vivo, rat; conditions: infusion rate which reduces the arrhythmia score to 50% of that of vehicle-treated animals
Description: Antiarrhythmic efficacy was assessed by investigating the effect of a compound on the incidence of cardiac arrhythmias in conscious rats subjected to coronary artery occlusion. Rats weighing 200–300 gms were subjected to preparative surgery and assigned to groups in a random block design. In each case, the animal was anesthetized with halothane during surgical preparation. The left femoral artery was cannulated for measurement of mean arterial blood pressure and withdrawal of blood samples. The left femoral vein was also cannulated for injection of drugs. The thoracic cavity was opened and a polyethylene occluder loosely placed around the left anterior descending coronary artery. The thoracic cavity was then closed. ECG was recorded by insertion of electrodes placed along the anatomical axis of the heart. All cannulae and electrode leads were exteriorized in the mid scapular region. […] ECG, arrhythmias, blood pressure, heart rate and mortality were monitored for 30 minutes after occlusion. Arrhythmias were recorded as ventricular tachycardia (VT) and ventricular fibrillation (VF) and scored according to Curtis, M. J. and Walker, M. J. A., Cardiovasc. […]
Occlusion is associated with increases in R-wave height and “S-T” segment elevation: and an occluded zone (measured after death by cardiogreen dye perfusion) in the range of 25%–50% of total left-ventricular weight. […]

[2] = system: cardiac sodium channel blockage (left ventricle square wave stimulation); experiment: Assessment of sodium channel blockage by electrical stimulation of the left ventricle in rats; type: in vivo; conditions: infusion rate eliciting a 25% increase from control; rat left ventricle stimulation
Description: Rats were prepared according to the preceding procedure. Two silver stimulating electrodes were inserted through the chest wall and implanted in the left ventricle. Square wave stimulation was used to determine threshold current for capture, ventricular fibrillation threshold current, and effective refractory period (Howard, P. G. and Walker, M. J. A., Proc. West. Pharmacol. Soc. 33:123–127 (1990)). Table 5 contains ED25 values for these indices of cardiac sodium channel blockage, where the ED25 is the infusion rate in micromol/kg/minute of compound required to elicit a 25% increase from control. The increases in refractoriness indicate ancillary blockage of potassium channels. The threshold current for capture is represented by “It”. The fibrillation threshold current is represented by “VFT”. The effective refracting period is represented by “ERP”.

[3] = system: ECG parameters (cardiac sodium channel / potassium channel blockage); experiment: Measurement of ECG parameters in pentobarbital anesthetized rats; type: in vivo, rat; conditions: bolus injection; for ED25 QT: dose producing a 25% increase in Q-T interval; for ED25 QRS: dose producing a 25% increase in QRS interval
Description: Rats weighing 200–250 gms were used in this example. Animals were anesthetized with 60 mg/kg pentobarbital i.p. The carotid artery and jugular vein were cannulated for measurement of blood pressure and drug injection, respectively. ECG was recorded by insertion of electrodes placed along the anatomical axis of the heart. All compounds were given as bolus injections.
Various ECG parameters were measured. Table 4 describes the results of the tests as ED25 (micromol/kg) which are the doses required to produce a 25% increase in the parameter measured (NE=not estimated). The increases in P—R interval and QRS interval indicate cardiac sodium channel blockage while the increase in Q-T interval indicates ancillary cardiac potassium channel blockage which is the property of a type 1a antiarrhythmic.

Compound	ED50AA [1] [µmol/kg/min]	ED25 ERP (effective refractory period) [2] [µmol/kg/min]	ED25 It (threshold current for capture) [2] [µmol/kg/min]	ED25 QT [3] [µmol/kg]	ED25 QRS [3] [µmol/kg]	ED25 VFT (fibrillation threshold current) [2] [µmol/kg/min]	ED25 PR ([3]; dose producing a 25% increase in P-R interval) [µmol/kg]
Cl.O=C1CCN(C2CCCC2OCCc2c(Cl)cccc2Cl)C1 [compound 2, (1R,2R)/(1S,2S)-2-(3-KETOPYRROLIDINYL)-1-(2,6-DICHLOROPHENETHOXY)CYCLOPENTANE MONOHYDROCHLORIDE]	4	2.6	10	3.3	9		
Cl.c1ccc2cc(CCOC3CCCC3N3CCOCC3)ccc2c1 [compound 1, (1R,2R)/(1S,2S)-2-(4-MORPHOLINYL)-1-(2-NAPHTHALENETHOXY)CYCLOPENTANE MONOHYDROCHLORIDE]	1.5	2.5	3.3	2.5	37	1.3	45
